From US12171787B2, “Methods and compositions for modulating angiogenesis and vasculogenesis” (SanBio, Inc., priority 2012, dated 2024)

Experiments:
HUVECs = assay: HUVEC tube formation assay; format: cell-based, human
From the text: A HUVEC tube formation assay was used to test the ability of MSCs and SB623 cells to elaborate factors that stimulate vessel formation. See, for example, E J Smith & C A Staton, “Tubule formation assays,” in Angiogenesis Assays—A Critical Appraisal of Current Techniques, (Staton, Lewis & Bicknell, eds.). John Wiley & Sons, Ltd., West Sussex, UK, pp. 65-87, 2006; and Goodwin (2007) Microvasc. Res. 74:172-183.
HUVECs were passed five times in EBM-2/ECGS medium, then transferred to alpha-MEM/0.5% FBS/2 mM glutamine/pen-strep, at a density of 1×10^5 cells/ml. After 24 hours, HUVECs were harvested using 0.25% trypsin-EDTA, rinsed, and resuspended in α-MEM/2 mM glutamine/pen-strep at a density of 1×10^5 cells/ml. A mixture of 75 ul of HUVECs plus 75 ul of either MSC- or SB623-conditioned medium (Example 1), or 75 ul OptiMEM medium as a negative control, was added to each well of a 96-well plate that had been pre-treated by adding 50 ul of Reduced Growth Factor (RGF)-basement gel (Invitrogen, Carslsbad, CA) per well and incubating the plates at 37° C. for 45 minutes. For this assay, MSCs were obtained from 3 different human donors, and a portion of the MSCs from each donor were converted to SB623 cells.
After 16 hours, the cultures were examined by phase contrast microscopy and photographed. The number of complete tubes (formed by contiguous cells) was quantified by an experimenter blinded to the group. […] Thus, MSCs and SB623 cells secrete factors that promote vasculogenesis.
HUVEC tube formation assays with conditioned medium from MSCs and SB623 cells were conducted as described in Example 4, in the presence and absence of the VEGF2 receptor inhibitor SU5416.
Quantitation of tube formation was conducted, as described in Example 4, for HUVECs exposed to SB623 cell conditioned medium in the presence and absence of SU5416, at 16 and 40 hours after plating.

[1] = system: human umbilical vein endothelial cells (HUVECs); assay: HUVEC proliferation: fraction of Ki67-expressing cells by flow cytometry; format: cell-based; settings: 50 nM SU5416 + SB623 cell conditioned medium, five days
Procedure: Ki67 is a protein present in cells exiting from the GO (quiescent) phase of the cell cycle; therefore Ki67 levels can be used as a measure of cell proliferation. The fraction of cells expressing Ki67 protein was measured in HUVECs that had been starved for serum and growth factors, then cultured with conditioned medium from either MSCs or SB623 cells.
For Ki67 measurement, HUVECs were cultured and exposed to CM as described in Example 2. Cells were fixed in 4% paraformaldehyde and permeabilized with 0.1% Triton-X100 for one hour. Following permeabilization, cells were stained for one hour on ice with fluorescein-conjugated anti-KI67 antibody, then samples were washed, acquired, and analyzed on the FL-1 channel of a BD FACSCalibur. Cells exposed to fluorescein-conjugated IgG were used as a negative control. For these assays, 3 different human donor pairs were tested.
The effect of the VEGF receptor inhibitor on stimulation of HUVEC proliferation by SB623 cell factors was also assessed. Assays for expression of Ki67 were conducted as described in Example 3, except that 50 nM SU5416 was added to cultures 30 minutes before addition of conditioned medium, and cells were cultured for five days, instead of seven, before assay.

[2] = system: human umbilical vein endothelial cells (HUVECs); assay: HUVEC survival: fraction of Bcl-2-expressing cells by flow cytometry; format: cell-based; settings: 50 nM SU5416 + SB623 cell-conditioned medium, five days, vs SB623 CM alone
Procedure: (§1) Cerebral ischemia can result in loss of nutrient supply to the affected area. To determine if soluble factors from SB623 cells and MSCs have restorative effects on nutrient-deprived endothelial cells, human umbilical vein endothelial cells (HUVECs) were cultured in medium depleted of serum and growth factors for 24 hours, then exposed to conditioned medium (CM) from MSCs or SB623 cells. Control cultures remained in serum- and growth factor-depleted medium without addition of CM. Viability and proliferative capacity of the HUVECs were then assessed.
For these experiments, human umbilical vein endothelial cells were passed twice, then 7.5×10^5 cells were plated in EBM-2/ECGS medium (Endothelial Basal Medium-2/Endothelial Cell Growth Supplements; Lonza, Walkersville, MD) on T-75 flasks coated with 0.1% gelatin and cultured for 24 hours. […] Effects of CM were then assessed by withdrawing 6 ml of medium from each flask, and replacing it with 6 ml fresh OptiMEM (control), 6 ml MSC conditioned medium, or 6 ml SB623 cell conditioned medium (conditioned media prepared as described in Example 1). […]
Bcl-2 is an anti-apoptotic protein originally identified as being overexpressed in certain B-cell lymphomas. Accordingly, the fraction of cells expressing the Bcl-2 protein was measured in serum/growth factor-starved HUVECs as an indicator of their apoptotic potential. […]

[3] = system: human umbilical vein endothelial cells (HUVECs); assay: HUVEC survival: propidium iodide staining of serum/growth factor-starved HUVECs; format: cell-based; settings: 50 nM SU5416 + SB623 cell-conditioned medium, five days, vs SB623 CM alone
Procedure: as §1
For these experiments, human umbilical vein endothelial cells were passed twice, then 7.5×10^5 cells were plated in EBM-2/ECGS medium (Endothelial Basal Medium-2/Endothelial Cell Growth Supplements; Lonza, Walkersville, MD) on T-75 flasks coated with 0.1% gelatin and cultured for 24 hours. The HUVEC monolayers were rinsed twice with warm PBS and incubated with 12 ml of fresh EBM-2 medium overnight at 37° C., 5% CO2. Effects of CM were then assessed by withdrawing 6 ml of medium from each flask, and replacing it with 6 ml fresh OptiMEM (control), 6 ml MSC conditioned medium, or 6 ml SB623 cell conditioned medium (conditioned media prepared as described in Example 1). […]
To quantify cell death, cells were stained with propidium iodide (PI), since dead cells are permeable to PI. […]

aortic rings = assay: Aortic ring assay (vessel outgrowth and branching); format: cell-based, Sprague-Dawley rats; settings: 50 nM SU5416, rat aortic rings, 10 days
From the text: Restoration of vasculature after ischemic injury requires that surviving endothelial cells receive signals that prompt their migration and invasion. Such signals may arise from vascular smooth muscle cells, monocytes, and/or macrophages, among others. To test for secretion of factors involved in vessel sprouting and branching, the aortic ring assay was used. See, for example, Nicosia & Ottinetti (1990) Lab. Invest. 63:115-122 and Nicosia (2009) J. Cell. Mol. Med. 13:4113-4136.
For preparation of aortic rings, adult Sprague-Dawley rats were euthanized prior to dissection. After clamping off its two ends, the aorta was removed and placed in ice-cold α-MEM/pen-strep medium prior to removal of the external adipose layer. Adipose-free aorta was rinsed twice with ice-cold EBM-2/pen-strep medium before being sectioned into rings of 1.0 mm thickness. […]
To assess the angiogenic activity of MSC- and SB623-derived factors, phase contrast photographs were taken on Day 10, and results were quantified by an experimenter blinded to the group, by counting vessel outgrowth and branching. Growth of new vessels was quantitated by measuring the number of vessels growing out from the ring; and vessel branching was quantitated by measuring the number of branchpoints present in vessels growing out from the aortic ring. […]

| Molecule | effect on positive effect of SB623 CM on tube formation (quantitation) (HUVECs; 50 nM SU5416, 16 and 40 hours after plating) | effect on stimulation of tube formation by VEGF, MSC-CM and SB623-CM (HUVECs; 50 nM SU5416, 16 hours) | effect on enhancement of HUVEC proliferation (Ki67) by SB623 conditioned medium [1] | Bcl-2 expression by HUVECs in SB623 conditioned medium plus inhibitor [2] | propidium iodide uptake by HUVECs in SB623 conditioned medium plus inhibitor [3] | vessel outgrowth and branching in SB623 cell-conditioned medium plus inhibitor (aortic rings) | tube formation by HUVECs (positive control) (HUVECs; 10 ng/ml VEGF, 16 hours) |
| --- | --- | --- | --- | --- | --- | --- | --- |
| Cc1cc(C)c(/C=C2\C(=O)Nc3ccccc32)[nH]1 [SU5416] | completely reversed | reduces the stimulation of tube formation | partially reversed | fewer cells express | more cells take up PI | reduced |  |
| VEGF |  |  |  |  |  |  | promote tube formation |
